{
  "source": "patent US11708562B2",
  "about": "“Differentiation of human embryonic stem cells” (Janssen Biotech, Inc., priority 2006, dated 2023)",
  "key": {"[1]": {"system": "human embryonic stem cell line H1", "assay": "FACS protein expression following 5-day activin A treatment (Table IIC)", "assay_type": "cell-based", "conditions": "5-day AA treatment", "experimental": "The level of expression of definitive endoderm markers was examined by PCR (FIGS. 1A and 1B), FACS (results summarized in Table I), and immunohistochemistry (FIGS. 2A, 2B and 2C).\nAdhered cells were removed from culture plates by five-minute incubation with TrypLE™ Express solution (Invitrogen, CA). Released cells were resuspended in human embryonic stem cell culture medium and recovered by centrifugation, followed by washing and resuspending the cells in a staining buffer consisting of 2% BSA, 0.05% sodium azide in PBS (Sigma, MO). As appropriate, the cells were Fc-receptor blocked for 15 minutes using a 0.1% γ-globulin (Sigma) solution. […] Controls included appropriate isotype matched antibodies, unstained cells, and cells stained only with secondary conjugated antibody. All incubations with antibodies were performed for 30 mins at 4° C. after which the cells were washed with the staining buffer. Samples that were stained with unconjugated primary antibodies were incubated for an additional 30 mins at 4° C. with secondary conjugated PE or -APC labeled antibodies. See Table I for a list of secondary antibodies used. Washed cells were pelleted and resuspended in the staining buffer, and the cell surface molecules were identified using a FACS Array (BD Biosciences) instrument, collecting at least 10,000 events."}, "[2]": {"system": "human embryonic stem cell line H9", "assay": "Formation of pancreatic endocrine cells expressing Nkx2.2 (PCR)", "assay_type": "cell-based", "conditions": "activin A for the first three days of culture", "experimental": "Cells were continuously cultured for another 3 to 5 days in basal medium with retinoic acid at 1 μM, alone or with bFGF. RNA samples were harvested from cells at various time points along this process to help evaluate the directed differentiation of the cells. Furthermore, culture medium and factors were regularly removed and replenished throughout the differentiation protocol."}},
  "data": [
    {"substance": "Activin A: a member of the TGFβ superfamily; growth factor (R&D Systems) used to differentiate human embryonic stem cells", "values": [
      {"measurement": "CXCR4+ cells (FACS)", "setting": "[1]", "value": 92.78, "unit": "%"},
      {"measurement": "CXCR4+/C-kit+ cells (FACS)", "setting": "[1]", "value": 92.90, "unit": "%"},
      {"measurement": "CXCR4+/CD9+ cells (FACS)", "setting": "[1]", "value": 7.03, "unit": "%"},
      {"measurement": "CXCR4+/CD99+ cells (FACS)", "setting": "[1]", "value": 88.78, "unit": "%"},
      {"measurement": "CXCR4+/EPCAM cells (FACS)", "setting": "[1]", "value": 87.99, "unit": "%"},
      {"measurement": "Pdx1 expression compared to samples containing no activin A", "setting": "[2]", "value": "maintained Pdx1 expression"}
    ]}
  ]
}
